Experimental data published in PubChem BioAssay AID1963840 (Molecular Pharmacology Branch, DTP, NCI, 2024).

Tested on: 695427-040-R-J1-PDC complex spheroid viability
Assay: Anticancer human tumor 695427-040-R-J1-PDC patient-derived colon adenocarcinoma cell line growth inhibition [POLQ]
Conditions: for IC50: curve of first compound; for viability, T/C: stronger effect = lower value
How it was run: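 PDC + HUVEC + MSC complex spheroids; POLQ inhibitors ± partner drugs; top conc. at/near clinical Cmax, else 10 microM (SN-38 1 microM), half-log dilutions; 37 degrees C, 5% CO2.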

[1] = second compound 0.0316 µM, first compound 0.0316 µM
[2] = second compound 0.0316 µM, first compound 0.1 µM
[3] = second compound 0.0316 µM, first compound 0.316 µM
[4] = second compound 0.0316 µM, first compound 1 µM
[5] = second compound 0.0316 µM, first compound 3.16 µM
[6] = second compound 0.0316 µM, first compound 10 µM
[7] = second compound 0.1 µM, first compound 0.0316 µM
[8] = second compound 0.1 µM, first compound 0.1 µM
[9] = second compound 0.1 µM, first compound 0.316 µM
[10] = second compound 0.1 µM, first compound 1 µM
[11] = second compound 0.1 µM, first compound 3.16 µM
[12] = second compound 0.1 µM, first compound 10 µM
[13] = second compound 0.316 µM, first compound 0.0316 µM
[14] = second compound 0.316 µM, first compound 0.1 µM
[15] = second compound 0.316 µM, first compound 0.316 µM
[16] = second compound 0.316 µM, first compound 1 µM
[17] = second compound 0.316 µM, first compound 3.16 µM
[18] = second compound 0.316 µM, first compound 10 µM
[19] = second compound 1 µM, first compound 0.0316 µM
[20] = second compound 1 µM, first compound 0.1 µM
[21] = second compound 1 µM, first compound 0.316 µM
[22] = second compound 1 µM, first compound 1 µM
[23] = second compound 1 µM, first compound 3.16 µM
[24] = second compound 1 µM, first compound 10 µM
[25] = second compound 3.16 µM, first compound 0.0316 µM
[26] = second compound 3.16 µM, first compound 0.1 µM
[27] = second compound 3.16 µM, first compound 0.316 µM
[28] = second compound 3.16 µM, first compound 1 µM
[29] = second compound 3.16 µM, first compound 3.16 µM
[30] = second compound 3.16 µM, first compound 10 µM
[31] = second compound 10 µM, first compound 0.0316 µM
[32] = second compound 10 µM, first compound 0.1 µM
[33] = second compound 10 µM, first compound 0.316 µM
[34] = second compound 10 µM, first compound 1 µM
[35] = second compound 10 µM, first compound 3.16 µM
[36] = second compound 10 µM, first compound 10 µM
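Also: spheroids exposed to compounds for seven days.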
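For viability, T/C in this document: 100% = DMSO vehicle control viability.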

Q: `COc1cc(C2c3cc4c(cc3C(OC3OC5COC(C)OC5C(O)C3O)C3COC(=O)C23)OCO4)cc(OC)c1O` (stereo unspecified) + Nc1ccc(C#CCN(C(=O)Cc2ncc(C(F)(F)F)cc2C(F)(F)F)c2ccc(F)cc2)nn1 was tested. Which IC50 (second compound 0.0316 µM) did it give?
A: Its IC50 is greater than 10 µM.

Q: What about the IC50 (second compound 0.1 µM) of the same compound?
A: Its IC50 is greater than 10 µM.

Q: What about the IC50 (second compound 0.316 µM) of the same compound?
A: Its IC50 is greater than 10 µM.

Q: And the IC50 (second compound 1 µM)?
A: The IC50 was greater than 10 µM.

Q: And the IC50 (second compound 3.16 µM)?
A: The IC50 was greater than 10 µM.

Q: And the IC50 (second compound 10 µM)?
A: The IC50 was greater than 10 µM.

Q: What about the viability, T/C [1] of the same compound?
A: The viability, T/C was 104%.

Q: What about the viability, T/C [2] of the same compound?
A: The viability, T/C was 97.9%.

Q: And the viability, T/C [3]?
A: Its viability, T/C is 98%.

Q: And the viability, T/C [4]?
A: The viability, T/C was 97.8%.

Q: And the viability, T/C [5]?
A: Its viability, T/C is 95.2%.

Q: What about the viability, T/C [6] of the same compound?
A: Its viability, T/C is 87.4%.

Q: What about the viability, T/C [7] of the same compound?
A: Its viability, T/C is 99%.

Q: And the viability, T/C [8]?
A: The viability, T/C was 97.2%.

Q: What about the viability, T/C [9] of the same compound?
A: Its viability, T/C is 100%.

Q: What about the viability, T/C [10] of the same compound?
A: The viability, T/C was 104%.

Q: What about the viability, T/C [11] of the same compound?
A: Its viability, T/C is 102%.

Q: And the viability, T/C [12]?
A: Its viability, T/C is 89.4%.

Q: And the viability, T/C [13]?
A: Its viability, T/C is 98.4%.

Q: What about the viability, T/C [14] of the same compound?
A: The viability, T/C was 90.5%.

Q: What about the viability, T/C [15] of the same compound?
A: Its viability, T/C is 98.3%.

Q: And the viability, T/C [16]?
A: Its viability, T/C is 97.6%.

Q: And the viability, T/C [17]?
A: Its viability, T/C is 113%.

Q: And the viability, T/C [18]?
A: The viability, T/C was 91.3%.

Q: What about the viability, T/C [19] of the same compound?
A: The viability, T/C was 101%.

Q: What about the viability, T/C [20] of the same compound?
A: Its viability, T/C is 97.5%.

Q: What about the viability, T/C [21] of the same compound?
A: The viability, T/C was 105%.

Q: And the viability, T/C [22]?
A: Its viability, T/C is 97.5%.

Q: And the viability, T/C [23]?
A: The viability, T/C was 106%.

Q: What about the viability, T/C [24] of the same compound?
A: Its viability, T/C is 73.5%.

Q: And the viability, T/C [25]?
A: The viability, T/C was 96.2%.

Q: What about the viability, T/C [26] of the same compound?
A: Its viability, T/C is 94.3%.

Q: And the viability, T/C [27]?
A: The viability, T/C was 98.5%.

Q: And the viability, T/C [28]?
A: The viability, T/C was 99.2%.

Q: What about the viability, T/C [29] of the same compound?
A: Its viability, T/C is 101%.

Q: What about the viability, T/C [30] of the same compound?
A: Its viability, T/C is 81.5%.

Q: What about the viability, T/C [31] of the same compound?
A: Its viability, T/C is 92.7%.

Q: And the viability, T/C [32]?
A: The viability, T/C was 89%.

Q: And the viability, T/C [33]?
A: The viability, T/C was 88.8%.

Q: And the viability, T/C [34]?
A: Its viability, T/C is 87.8%.

Q: And the viability, T/C [35]?
A: Its viability, T/C is 85.9%.

Q: What about the viability, T/C [36] of the same compound?
A: Its viability, T/C is 84.9%.

Q: `Nc1ccn(C2OC(CO)C(O)C2(F)F)c(=O)n1` (stereo unspecified) + Nc1ccc(C#CCN(C(=O)Cc2ncc(C(F)(F)F)cc2C(F)(F)F)c2ccc(F)cc2)nn1 was tested. Which IC50 (second compound 0.0316 µM) did it give?
A: Its IC50 is greater than 10 µM.

Q: What about the IC50 (second compound 0.1 µM) of the same compound?
A: Its IC50 is greater than 10 µM.

Q: And the IC50 (second compound 0.316 µM)?
A: Its IC50 is greater than 10 µM.

Q: And the IC50 (second compound 1 µM)?
A: The IC50 was greater than 10 µM.

Q: What about the IC50 (second compound 3.16 µM) of the same compound?
A: The IC50 was greater than 10 µM.

Q: And the IC50 (second compound 10 µM)?
A: The IC50 was greater than 10 µM.

Q: What about the viability, T/C [1] of the same compound?
A: The viability, T/C was 103%.

Q: What about the viability, T/C [2] of the same compound?
A: The viability, T/C was 92.8%.

Q: And the viability, T/C [3]?
A: Its viability, T/C is 92.1%.

Q: What about the viability, T/C [4] of the same compound?
A: Its viability, T/C is 91.3%.

Q: What about the viability, T/C [5] of the same compound?
A: The viability, T/C was 81.8%.

Q: And the viability, T/C [6]?
A: Its viability, T/C is 66.6%.

Q: And the viability, T/C [7]?
A: Its viability, T/C is 98%.

Q: And the viability, T/C [8]?
A: Its viability, T/C is 96.1%.

Q: And the viability, T/C [9]?
A: Its viability, T/C is 90.8%.

Q: And the viability, T/C [10]?
A: Its viability, T/C is 81.3%.

Q: And the viability, T/C [11]?
A: Its viability, T/C is 80.4%.

Q: And the viability, T/C [12]?
A: Its viability, T/C is 62.2%.

Q: What about the viability, T/C [13] of the same compound?
A: The viability, T/C was 106%.

Q: And the viability, T/C [14]?
A: Its viability, T/C is 102%.

Q: And the viability, T/C [15]?
A: Its viability, T/C is 75.9%.

Q: What about the viability, T/C [16] of the same compound?
A: Its viability, T/C is 78%.

Q: And the viability, T/C [17]?
A: The viability, T/C was 79%.

Q: What about the viability, T/C [18] of the same compound?
A: Its viability, T/C is 68.1%.

Q: What about the viability, T/C [19] of the same compound?
A: The viability, T/C was 104%.

Q: And the viability, T/C [20]?
A: Its viability, T/C is 90.9%.

Q: What about the viability, T/C [21] of the same compound?
A: The viability, T/C was 89.4%.

Q: What about the viability, T/C [22] of the same compound?
A: The viability, T/C was 78.8%.

Q: And the viability, T/C [23]?
A: Its viability, T/C is 80.7%.

Q: And the viability, T/C [24]?
A: Its viability, T/C is 63.7%.

Q: And the viability, T/C [25]?
A: The viability, T/C was 102%.

Q: And the viability, T/C [26]?
A: Its viability, T/C is 93.3%.

Q: And the viability, T/C [27]?
A: The viability, T/C was 85.1%.

Q: And the viability, T/C [28]?
A: Its viability, T/C is 84.8%.

Q: What about the viability, T/C [29] of the same compound?
A: Its viability, T/C is 83.7%.

Q: What about the viability, T/C [30] of the same compound?
A: Its viability, T/C is 65.8%.

Q: What about the viability, T/C [31] of the same compound?
A: Its viability, T/C is 92.5%.

Q: What about the viability, T/C [32] of the same compound?
A: The viability, T/C was 86.7%.

Q: And the viability, T/C [33]?
A: Its viability, T/C is 82.3%.

Q: And the viability, T/C [34]?
A: The viability, T/C was 84.6%.

Q: What about the viability, T/C [35] of the same compound?
A: The viability, T/C was 89.2%.

Q: And the viability, T/C [36]?
A: Its viability, T/C is 73.9%.

Q: What does the source list for `O=c1[nH]cc(F)c(=O)[nH]1` + Nc1ccc(C#CCN(C(=O)Cc2ncc(C(F)(F)F)cc2C(F)(F)F)c2ccc(F)cc2)nn1?
A: IC50 (second compound 0.0316 µM): > 10 µM; IC50 (second compound 0.1 µM): > 10 µM; IC50 (second compound 0.316 µM): > 10 µM; IC50 (second compound 1 µM): > 10 µM; IC50 (second compound 3.16 µM): > 10 µM; IC50 (second compound 10 µM): > 10 µM; viability, T/C [1]: 111%; viability, T/C [2]: 111%; viability, T/C [3]: 98.8%; viability, T/C [4]: 102%; viability, T/C [5]: 112%; viability, T/C [6]: 106%; viability, T/C [7]: 111%; viability, T/C [8]: 106%; viability, T/C [9]: 95.1%; viability, T/C [10]: 106%; viability, T/C [11]: 111%; viability, T/C [12]: 100%; viability, T/C [13]: 110%; viability, T/C [14]: 105%; viability, T/C [15]: 99.5%; viability, T/C [16]: 112%; viability, T/C [17]: 106%; viability, T/C [18]: 90.9%; viability, T/C [19]: 104%; viability, T/C [20]: 98.8%; viability, T/C [21]: 90.5%; viability, T/C [22]: 107%; viability, T/C [23]: 107%; viability, T/C [24]: 99.1%; viability, T/C [25]: 98.7%; viability, T/C [26]: 107%; viability, T/C [27]: 97.6%; viability, T/C [28]: 93.2%; viability, T/C [29]: 103%; viability, T/C [30]: 108%; viability, T/C [31]: 110%; viability, T/C [32]: 103%; viability, T/C [33]: 98%; viability, T/C [34]: 97.5%; viability, T/C [35]: 96.7%; viability, T/C [36]: 101%
